# Data published in US20070087352A9, “Inhibitors for androgen antagonist refractory prostate cancer” (priority 2003, published 2007).
# Tests used:
# [1] = target: T1, agonist-bound ERα LBD (Homo sapiens, UniProt P03372); assay: Competition assays of GRIP1 NR Box 2 peptide; details: binding to agonist-bound ERα LBD
# T1 sequence (P03372 311-547 limits assumed): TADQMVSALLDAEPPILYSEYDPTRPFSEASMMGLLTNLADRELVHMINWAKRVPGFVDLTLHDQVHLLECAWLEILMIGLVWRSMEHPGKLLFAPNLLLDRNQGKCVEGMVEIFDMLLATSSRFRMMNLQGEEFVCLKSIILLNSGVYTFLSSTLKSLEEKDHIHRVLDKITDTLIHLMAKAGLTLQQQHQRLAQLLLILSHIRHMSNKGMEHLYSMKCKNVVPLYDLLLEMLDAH
# [2] = target: T2, hERα-LBD (Homo sapiens, UniProt P03372); assay: Electrophoretic mobility shift assay (native PAGE); format: binding; details: 2-fold or 10-fold molar excess of peptide, 6% native PAGE
# T2 sequence (P03372 311-547 limits assumed): T1 sequence (P03372 311-547 limits assumed)
# Description: Eight microgram samples of purified hERα-LBD bound to either DES or OHT were incubated in the absence of the GRIP1 NR Box 2 peptide (SEQ ID NO:4), i.e., buffer alone, or in the presence of either a 2-fold or 10-fold molar excess of the GRIP1 NR Box 2 peptide. The binding reactions were performed on ice for 45 minutes in 10 μl of buffer containing 20 mM Tris, pH 8.1, 1 mM DTT, and 200 mM NaCl and then subjected to 6% native PAGE. Gels were stained with GELCODE Blue Stain reagent (Pierce).
# In the presence of the NR box 2 peptide, the migration of the DES-LBD complex was retarded. In contrast, peptide addition had no effect on the mobility of the OHT-LBD complex.
substance,measurement,setting,value
H-KHKILHRLLQDSS-OH [GRIP1 NR Box 2 peptide],IC50,[1],< 400 nM
same,migration of the DES-LBD complex,[2]; hERα-LBD bound to agonist DES,retarded
same,mobility of the OHT-LBD complex,[2]; hERα-LBD bound to antagonist OHT,no effect
